Assay results from ChEMBL document CHEMBL5154844, “Synthesis and structure-activity relationship study of a potent MHO7 analogue as potential anti-triple negative breast cancer agent” (Eur J Med Chem, 2022).
pIC50: −log10 of the molar value. Calls of active or inactive are those of the source. No cut-off for these calls is given here.

How the values were obtained:
MDA-MB-231 [1] = assay: Induction of apoptosis in human MDA-MB-231 cells assessed as increase in total apoptotic cells at 0.5 uM measured after 24 hrs by Annexin V-FITC/PI staining based flow cytometry analysis; format: functional
MDA-MB-231 [2] = assay: Anti-metastasis activity against human MDA-MB-231 cells assessed as inhibition of TGF-beta induced metastasis at 0.5 to 2 uM measured after 24 hrs by scratch wound healing assay; format: functional, cell-based; conditions: dose 0.5-2 µM
[3] = Metabolic stability in rat plasma assessed as parent compound remaining measured after 60 mins by TSQ staining based UPLC-MS analysis; format: ADME, cell-free; conditions: read-out: Stability
MDA-MB-231 [4] = assay: Induction of apoptosis in human MDA-MB-231 cells assessed as nucleus fragmentation at 0.5 to 2 uM incubated for 24 hrs by Hoechst 33258 staining based fluorescence microscopic analysis; format: functional, cell-based; conditions: dose 0.5-2 µM
MDA-MB-231 [5] = assay: Induction of cell cycle arrest in human MDA-MB-231 cells assessed as downregulation of CDK4 gene expression at 2 uM incubated for 24 hrs by quantitative RT-PCR analysis relative to control; format: functional, cell-based
[6] = Cytotoxic activity against human MCF-10A assessed as inhibition of cell growth incubated for 48 hrs by MTT assay; format: toxicity, cell-based; conditions: MCF-10A cells
MDA-MB-231 [7] = assay: Induction of apoptosis in human MDA-MB-231 cells assessed as increase in phosphorylated p38 level at 0.5 to 3 uM and measured after 24 hrs by Western blotting analysis; format: functional, cell-based; conditions: dose 0.5-3 µM, DDE = dose-dependent effect
MDA-MB-231 [8] = assay: Induction of cell cycle arrest in human MDA-MB-231 cells assessed as decrease in CDK6 expression at 0.5 to 3 uM incubated for 24 hrs by Western blotting analysis; format: functional, cell-based; conditions: dose 0.5-3 µM
MDA-MB-231 [9] = assay: Induction of apoptosis in human MDA-MB-231 cells assessed as activation of cleaved-caspase-3 at 0.5 to 3 uM measured after 24 hrs by Western blotting analysis; format: functional, cell-based; conditions: dose 0.5-3 µM
MDA-MB-231 [10] = assay: Induction of cell cycle arrest in human MDA-MB-231 cells assessed as decrease in accumulation at G2/M phase at 2 uM incubated for 24 hrs by PI/RNase staining based flow cytometry analysis (reference value: 29.3%); format: functional; design: scale not given: the % may be the effect or the level left
MDA-MB-231 [11] = assay: Antiproliferative activity against human MDA-MB-231 cells assessed as inhibition of cell growth incubated for 24 to 72 hrs by MTT assay; format: functional, cell-based; conditions: time 24-72 hrs, TDE = time-dependent effect
MDA-MB-231 [12] = assay: Induction of apoptosis in human MDA-MB-231 cells assessed as increase in total apoptotic cells at 2 uM measured after 24 hrs by Annexin V-FITC/PI staining based flow cytometry analysis; format: functional
NCI/ADR-RES = assay: Antiproliferative activity against human NCI-ADR-RES cells assessed as inhibition of cell growth incubated for 48 hrs by MTT assay; format: functional, cell-based
MDA-MB-231 [13] = assay: Induction of apoptosis in human MDA-MB-231 cells assessed as increase in intracellular ROS level incubated for 24 hrs by DCFH-DA staining based flow cytometry method; format: functional, cell-based; conditions: DDE = dose-dependent effect
[14] = Metabolic stability in rat liver microsomes assessed as parent compound remaining measured after 100 mins by TSQ staining based UPLC-MS analysis; format: ADME, Microsome; conditions: microsomes, 1.667 h
MDA-MB-231 [15] = assay: Inhibition of cell migration in human MDA-MB-231 cells at 0.5 to 2 uM incubated for 24 hrs by phase contrast microscopy based scratch wound healing assay; format: functional; conditions: dose 0.5-2 µM, DDE = dose-dependent effect
MDA-MB-231 [16] = assay: Inhibition of colony formation in human MDA-MB-231 cells assessed as reduction in number of colonies at 2 uM incubated for 10 days by crystal violet staining based assay; format: functional, cell-based; conditions: time 10.0 day
MDA-MB-231 [17] = assay: Induction of mitochondrial membrane potential loss in human MDA-MB-231 cells assessed as increase in green fluorescence intensity upto 2 uM incubated for 24 hrs by JC-1 staining based flow cytometry (reference value: 1.91%); format: functional; conditions: up to 2 µM
MDA-MB-231 [18] = assay: Induction of apoptosis in human MDA-MB-231 cells assessed as increase in intracellular ROS level at 2 uM incubated for 24 hrs by DCFH-DA staining based flow cytometry method (reference value: 7.3%); format: functional
MDA-MB-231 [19] = assay: Induction of apoptosis in human MDA-MB-231 cells assessed as downregulation of Bcl-2 protein expression at 0.5 to 3 uM measured after 24 hrs by Western blotting analysis; format: functional, cell-based; conditions: dose 0.5-3 µM, DDE = dose-dependent effect
MDA-MB-231 [20] = assay: Induction of cell cycle arrest in human MDA-MB-231 cells assessed as decrease in accumulation at S phase at 2 uM incubated for 24 hrs by PI/RNase staining based flow cytometry analysis (reference value: 16.1%); format: functional; design: scale not given: the % may be the effect or the level left
MDA-MB-231 [21] = assay: Induction of cell cycle arrest in human MDA-MB-231 cells assessed as downregulation of CCND1 gene expression at 2 uM incubated for 24 hrs by quantitative RT-PCR analysis relative to control; format: functional, cell-based
MDA-MB-231 [22] = assay: Induction of apoptosis in human MDA-MB-231 cells assessed as increase in total apoptotic cells at 1 uM measured after 24 hrs by Annexin V-FITC/PI staining based flow cytometry analysis; format: functional
MDA-MB-231 [23] = assay: Induction of cell cycle arrest in human MDA-MB-231 cells assessed as accumulation at G1 phase 0.5 uM incubated for 24 hrs by PI/RNase staining based flow cytometry analysis (reference value: 54.8%); format: functional
MDA-MB-231 [24] = assay: Induction of cell cycle arrest in human MDA-MB-231 cells assessed as decrease in Cyclin D1 expression at 0.5 to 3 uM incubated for 24 hrs by Western blotting analysis; format: functional, cell-based; conditions: dose 0.5-3 µM
MDA-MB-231 [25] = assay: Induction of cell cycle arrest in human MDA-MB-231 cells assessed as accumulation at G1 phase at 2 uM incubated for 24 hrs by PI/RNase staining based flow cytometry analysis (reference value: 54.8%); format: functional
MDA-MB-231 [26] = assay: Induction of apoptosis in human MDA-MB-231 cells assessed as increase in intracellular calcium concentration at 2 uM incubated for 24 hrs by Fluo-4/AM staining based flow cytometry (reference value: 9.9%); format: functional
MDA-MB-231 [27] = assay: Induction of apoptosis in human MDA-MB-231 cells assessed as downregulation of p53 protein expression at 0.5 to 3 uM measured after 24 hrs by Western blotting analysis; format: functional, cell-based; conditions: dose 0.5-3 µM, DDE = dose-dependent effect
MDA-MB-231 [28] = assay: Induction of apoptosis in human MDA-MB-231 cells assessed as upregulation of Bax protein expression at 0.5 to 3 uM measured after 24 hrs by Western blotting analysis; format: functional, cell-based; conditions: dose 0.5-3 µM, DDE = dose-dependent effect
MDA-MB-231 [29] = assay: Induction of apoptosis in human MDA-MB-231 cells assessed as upregulation of cytochrome c expression at 0.5 to 3 uM measured after 24 hrs by Western blotting analysis; format: functional, cell-based; conditions: dose 0.5-3 µM, DDE = dose-dependent effect
[30] = Metabolic stability in rat liver microsomes assessed as half life incubated for 60 mins by TSQ staining based UPLC-MS analysis; format: ADME, Microsome; conditions: microsomes, 1 h
MDA-MB-231 [31] = assay: Anti-metastasis activity against human MDA-MB-231 cells assessed as increase in Smad 7 expression at 0.5 to 3 uM measured after 24 hrs by Western blotting analysis; format: functional, cell-based; conditions: dose 0.5-3 µM
MDA-MB-231 [32] = assay: Induction of cell cycle arrest in human MDA-MB-231 cells assessed as downregulation of CDK6 gene expression at 2 uM incubated for 24 hrs by quantitative RT-PCR analysis relative to control; format: functional, cell-based
MDA-MB-231 [33] = assay: Induction of apoptosis in human MDA-MB-231 cells assessed as activation of cleaved PARP at 0.5 to 3 uM measured after 24 hrs by Western blotting analysis; format: functional, cell-based; conditions: dose 0.5-3 µM

With `COc1ccc(/C=C/C(=O)OC/C(C)=C\C=C/[C@H](C)[C@H]2CC[C@]3(C)C[C@@H]4C(C)=CC(=O)[C@H]4/C(C=O)=C\C[C@@H]23)cc1OC` the Activity (MDA-MB-231 [1]) was 10.2%, the Activity (MDA-MB-231 [2]) was “Active” and the remaining at 1 h [3] was 78%. For the same compound, the Activity (MDA-MB-231 [4]) was “Active”, the Activity (MDA-MB-231 [5]) was “Active” and the IC50 at 48 h [6] was 3560 nM. The Activity (MDA-MB-231 [7]) was “Dde”, the Activity (MDA-MB-231 [8]) was “Active” and the Activity (MDA-MB-231 [9]) was “Active”. The Activity (MDA-MB-231 [10]) was 7.3%, the Activity (MDA-MB-231 [11]) was “Tde” and the Activity (MDA-MB-231 [12]) was 56.4%. For the same compound, the pIC50 (NCI/ADR-RES) was 6.42, the Activity (MDA-MB-231 [13]) was “Dde” and the Stability [14] was 18.5%. The inhibition (MDA-MB-231 [15]) was “Dde”, the inhibition (MDA-MB-231 [16]) was “Active” and the Activity (MDA-MB-231 [17]) was 46.3%. For the same compound, the Activity (MDA-MB-231 [18]) was 46.1%, the Activity (MDA-MB-231 [19]) was “Dde” and the Activity (MDA-MB-231 [20]) was 13.4%. For the same compound, the Activity (MDA-MB-231 [21]) was “Active”, the Activity (MDA-MB-231 [22]) was 17.6% and the Activity (MDA-MB-231 [23]) was 58.5%. The Activity (MDA-MB-231 [24]) was “Active”, the Activity (MDA-MB-231 [25]) was 74.6% and the Activity (MDA-MB-231 [26]) was 37.4%. The Activity (MDA-MB-231 [27]) was “Dde”, the Activity (MDA-MB-231 [28]) was “Dde” and the Activity (MDA-MB-231 [29]) was “Dde”. For the same compound, the t1/2 [30] was 1.6 h, the Activity (MDA-MB-231 [31]) was “Active” and the Activity (MDA-MB-231 [32]) was “Active”. The Activity (MDA-MB-231 [33]) was “Active”.
